Data from patent publication US20210115104A1, “AMYLIN ANALOGUES” (Zealand Pharma A/S, priority 2015, published 2021).
*1 amine or outer side, *2 acyl side, *3 side chain or, on linkers, in order; H or OH if unused. Where a SMILES comes first, the peptide text is derived from it. Bridges are numbered along the chain shown (N, C = ends). [ ]: non-standard residue; d: D form. The star is where a group is joined. C20 diacid = O=C(O)CCCCCCCCCCCCCCCCCCC(=O)*; γGlu = O=C(O)[C@H](CCC(=O)[*:2])N[*:1]; Hyp = O=C(O)[C@@H]1C[C@@H](O)CN1; NMeI = CC[C@H](C)[C@H](NC)C(=O)O; Sar = CNCC(=O)O

What was measured:
[1] = Assessment of physical stability (Thioflavin T fibrillation); assay type: physicochemical; design: key: FND = fibrillation not detected; FD = fibrillation detected; conditions: 1 mg/ml, 40° C., ThT; for Fibrillation pH 4.0 (Ac): 50 mM acetate buffer pH 4.0, 96 hours; for Fibrillation pH 7.0 (His): 50 mM histidine buffer pH 7.0, 96 hours; for Fibrillation pH 7.0 (Phos.): 50 mM phosphate buffer pH 7.0, 96 hours
In short: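 Fibrillation lag-time, in hours, taken where regressions of the initial stable phase and the growth phase intersect. ThT (40 μM) fluorescence monitored at 40 °C for 96 h, 10-min reads each preceded by 300 s mixing. Peptide at 1 mg/ml in 50 mM buffers: phosphate or histidine pH 7.0, acetate pH 4.0.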

[2] = target: T1, human amylin receptor 3 (hAMYR3), hCTR2 co-expressed with hRAMP3 (Homo sapiens, UniProt O60896+P30988); experiment: hAMYR3 cAMP assay (AlphaScreen) in COS7 cells; assay type: cell-based; conditions: cAMP induction, COS7 cells expressing hAMYR3; Table 1; read-out: hAMYR3 EC50
T1 construct: expressed in transfected cells
T1 sequence (P30988 25-474): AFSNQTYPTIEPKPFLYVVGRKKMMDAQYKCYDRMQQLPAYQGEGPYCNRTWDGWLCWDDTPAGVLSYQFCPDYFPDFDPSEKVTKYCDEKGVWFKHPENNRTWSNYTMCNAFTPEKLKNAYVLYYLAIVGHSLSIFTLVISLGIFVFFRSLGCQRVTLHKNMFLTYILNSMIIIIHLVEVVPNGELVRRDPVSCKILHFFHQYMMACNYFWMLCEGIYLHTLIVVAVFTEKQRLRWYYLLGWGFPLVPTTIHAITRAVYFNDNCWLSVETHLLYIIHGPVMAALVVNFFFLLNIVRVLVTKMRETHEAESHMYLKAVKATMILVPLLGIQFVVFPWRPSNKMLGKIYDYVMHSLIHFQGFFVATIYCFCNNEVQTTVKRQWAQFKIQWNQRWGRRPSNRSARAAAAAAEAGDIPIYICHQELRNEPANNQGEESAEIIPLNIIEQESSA
T1 sequence (O60896 24-148 partner): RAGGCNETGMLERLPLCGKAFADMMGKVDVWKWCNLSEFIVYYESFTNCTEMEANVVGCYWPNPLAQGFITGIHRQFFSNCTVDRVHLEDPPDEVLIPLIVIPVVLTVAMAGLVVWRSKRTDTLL
In short: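 EC50 values derive from 4PL curve fits of cAMP (AlphaScreen) in lysates of RAMP-naive COS7 cells stably carrying hCTR2 plus hRAMP3. Peptide dilution series were applied for 15 min at 37 °C in pH 7.4 Tyrode buffer containing 100 µM IBMX and 0.1% casein.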

[3] = Pharmacokinetic (PK) profiling in rats; assay type: in vivo, rat; design: CI/F (apparent clearance values): unit not given here; conditions: Sprague Dawley male rats, single sc 30 nmol/kg
Procedure: Sprague Dawley male rats were given a single subcutaneous (sc) bolus of each peptide to be tested, as specified below. 30 nmol/kg doses of compound were administered. Blood samples were drawn from the tail vein prior to dosing and at 24, 48, 72, 96 and 168 hours after dosing. Blood samples were taken from two rats at each time point, and only 2 blood samples were drawn from each rat, i.e. […] were used for each compound. The rats were euthanized immediately after the last blood sampling by concussion and cervical dislocation.
The dosing vehicle used for each test peptide was a mannitol-containing histidine buffer (pH 7.0). Plasma samples were analyzed after precipitation with ethanol by liquid chromatography mass spectrometry (LC-MS/MS). Mean plasma concentrations were used for calculation of the pharmacokinetic parameters using the non-compartmental approach in Phoenix WinNonlin 6.3.
Plasma terminal elimination half-life (t1/2) was determined as ln(2)/λz, where λz is the magnitude of the slope of the log linear regression of the log concentration versus time profile during the terminal phase. Apparent clearance (CL/F) was determined as dose/AUCinf (sc), where AUCinf is the area under the plasma concentration vs. time curve extrapolated to infinity (AUCinf=AUClast+Clast/λz, where Clast is the last observed plasma concentration).

SMILES | Fibrillation pH 4.0 (Ac) [1] | Fibrillation pH 7.0 (His) [1] | Fibrillation pH 7.0 (Phos.) [1] | EC50 [2] | CI/F (apparent clearance values) [3]
CC[C@H](C)[C@@H](C(=O)N[C@@H](CC(C)C)C(=O)N[C@@H](CO)C(=O)N[C@@H](CO)C(=O)N[C@H](C(=O)N[C@@H](CCC(=O)O)C(=O)N[C@H](C(=O)NCC(=O)N[C@@H](CO)C(=O)N[C@@H](CC(N)=O)C(=O)N[C@H](C(=O)N1C[C@H](O)C[C@H]1C(N)=O)[C@@H](C)O)C(C)C)[C@@H](C)O)N(C)C(=O)[C@H](C)NC(=O)CN(C)C(=O)[C@H](Cc1ccccc1)NC(=O)[C@H](CO)NC(=O)[C@H](CO)NC(=O)[C@H](CCCNC(=N)N)NC(=O)[C@H](CC(N)=O)NC(=O)[C@H](CC(C)C)NC(=O)[C@H](Cc1ccccc1)NC(=O)[C@H](Cc1c[nH]cn1)NC(=O)[C@H](C)NC(=O)[C@H](CC(C)C)NC(=O)[C@H](CCCNC(=N)N)NC(=O)[C@H](CCC(=O)O)NC(=O)[C@@H](NC(=O)[C@H](C)NC(=O)[C@@H]1CSSC[C@H](NC(=O)[C@H](CCCNC(=N)N)NC(=O)CC[C@H](NC(=O)CCCCCCCCCCCCCCCCCCC(=O)O)C(=O)O)C(=O)NCC(=O)N[C@@H]([C@@H](C)O)C(=O)N[C@@H](C)C(=O)N[C@@H]([C@@H](C)O)C(=O)N1)[C@@H](C)O [Compound 6, [19CD]-isoGlu-R-C( )-GTAT-C( )-ATERLAHFLNRSSF-Gly(Me)-A-Ile(Me)-LSSTEVGSNT-Hyp-NH2] ({C20 diacid-γGlu}-RCGTATCATERLAHFLNRSSF[Sar]A[NMeI]LSSTEVGSNT[Hyp]-NH2; disulfide 2-7) | FND | FND | FND | 0.22 nM | 0.0069
CC[C@H](C)[C@@H](C(=O)N[C@@H](CC(C)C)C(=O)N[C@@H](CO)C(=O)N[C@@H](CO)C(=O)N[C@H](C(=O)N[C@@H](CCC(=O)O)C(=O)N[C@H](C(=O)NCC(=O)N[C@@H](CO)C(=O)N[C@@H](CC(N)=O)C(=O)N[C@H](C(=O)N1C[C@H](O)C[C@H]1C(N)=O)[C@@H](C)O)C(C)C)[C@@H](C)O)N(C)C(=O)[C@H](C)NC(=O)CN(C)C(=O)[C@H](Cc1ccccc1)NC(=O)[C@H](CO)NC(=O)[C@H](CO)NC(=O)[C@H](CCCNC(=N)N)NC(=O)[C@H](CCC(N)=O)NC(=O)[C@H](CC(C)C)NC(=O)[C@H](Cc1ccccc1)NC(=O)[C@H](Cc1c[nH]cn1)NC(=O)[C@H](C)NC(=O)[C@H](CC(C)C)NC(=O)[C@H](CCCNC(=N)N)NC(=O)[C@H](CCC(=O)O)NC(=O)[C@@H](NC(=O)[C@H](C)NC(=O)[C@@H]1CSSC[C@H](NC(=O)[C@H](CCCNC(=N)N)NC(=O)CC[C@H](NC(=O)CCCCCCCCCCCCCCCCCCC(=O)O)C(=O)O)C(=O)NCC(=O)N[C@@H]([C@@H](C)O)C(=O)N[C@@H](C)C(=O)N[C@@H]([C@@H](C)O)C(=O)N1)[C@@H](C)O [Compound 7, [19CD]-isoGlu-R-C( )-GTAT-C( )-ATERLAHFLQRSSF-Gly(Me)-A-Ile(Me)-LSSTEVGSNT-Hyp-NH2] ({C20 diacid-γGlu}-RCGTATCATERLAHFLQRSSF[Sar]A[NMeI]LSSTEVGSNT[Hyp]-NH2; disulfide 2-7) | FND | FND | FND |  | 0.0087
CC[C@H](C)[C@@H](C(=O)N[C@@H](CC(C)C)C(=O)N[C@@H](CO)C(=O)N[C@@H](CO)C(=O)N[C@H](C(=O)N[C@@H](CCC(=O)O)C(=O)N[C@H](C(=O)NCC(=O)N[C@@H](CO)C(=O)N[C@@H](CC(N)=O)C(=O)N[C@H](C(=O)N1CCC[C@H]1C(N)=O)[C@@H](C)O)C(C)C)[C@@H](C)O)N(C)C(=O)[C@H](C)NC(=O)CN(C)C(=O)[C@H](Cc1ccccc1)NC(=O)[C@H](CO)NC(=O)[C@H](CO)NC(=O)[C@H](CCCNC(=N)N)NC(=O)[C@H](Cc1c[nH]cn1)NC(=O)[C@H](CC(C)C)NC(=O)[C@H](Cc1ccccc1)NC(=O)[C@H](Cc1c[nH]cn1)NC(=O)[C@H](C)NC(=O)[C@H](CC(C)C)NC(=O)[C@H](CCCNC(=N)N)NC(=O)[C@H](CCC(=O)O)NC(=O)[C@@H](NC(=O)[C@H](C)NC(=O)[C@@H]1CSSC[C@H](NC(=O)[C@H](CCCNC(=N)N)NC(=O)CC[C@H](NC(=O)CCCCCCCCCCCCCCCCCCC(=O)O)C(=O)O)C(=O)NCC(=O)N[C@@H]([C@@H](C)O)C(=O)N[C@@H](C)C(=O)N[C@@H]([C@@H](C)O)C(=O)N1)[C@@H](C)O [Compound 15, [19CD]-isoGlu-R-C( )-GTAT-C( )-ATERLAHFLHRSSF-Gly(Me)-A-Ile(Me)-LSSTEVGSNTP-NH2] ({C20 diacid-γGlu}-RCGTATCATERLAHFLHRSSF[Sar]A[NMeI]LSSTEVGSNTP-NH2; disulfide 2-7) | FND | FD | FND | 0.079 nM | 0.0116
CC[C@H](C)[C@@H](C(=O)N[C@@H](CC(C)C)C(=O)N[C@@H](CO)C(=O)N[C@@H](CO)C(=O)N[C@H](C(=O)N[C@@H](CCC(=O)O)C(=O)N[C@H](C(=O)NCC(=O)N[C@@H](CO)C(=O)N[C@@H](CO)C(=O)N[C@H](C(=O)N1C[C@H](O)C[C@H]1C(N)=O)[C@@H](C)O)C(C)C)[C@@H](C)O)N(C)C(=O)[C@H](C)NC(=O)CN(C)C(=O)[C@H](Cc1ccccc1)NC(=O)[C@H](CO)NC(=O)[C@H](CO)NC(=O)[C@H](CCCNC(=N)N)NC(=O)[C@H](CCC(N)=O)NC(=O)[C@H](CC(C)C)NC(=O)[C@H](Cc1ccccc1)NC(=O)[C@H](Cc1c[nH]cn1)NC(=O)[C@H](C)NC(=O)[C@H](CC(C)C)NC(=O)[C@H](CCCNC(=N)N)NC(=O)[C@H](CCC(=O)O)NC(=O)[C@@H](NC(=O)[C@H](C)NC(=O)[C@@H]1CSSC[C@H](NC(=O)[C@H](CCCNC(=N)N)NC(=O)CC[C@H](NC(=O)CCCCCCCCCCCCCCCCCCC(=O)O)C(=O)O)C(=O)NCC(=O)N[C@@H]([C@@H](C)O)C(=O)N[C@@H](C)C(=O)N[C@@H]([C@@H](C)O)C(=O)N1)[C@@H](C)O [Compound 28, [19CD]-isoGlu-R-C( )-GTAT-C( )-ATERLAHFLQRSSF-Gly(Me)-A-Ile(Me)-LSSTEVGSST-Hyp-NH2] ({C20 diacid-γGlu}-RCGTATCATERLAHFLQRSSF[Sar]A[NMeI]LSSTEVGSST[Hyp]-NH2; disulfide 2-7) | FND | FND | FND | 0.13 nM | 0.0128
CC[C@H](C)[C@@H](C(=O)N[C@@H](CC(C)C)C(=O)N[C@@H](CO)C(=O)N[C@@H](CO)C(=O)N[C@H](C(=O)N[C@@H](CCC(=O)O)C(=O)N[C@H](C(=O)NCC(=O)N[C@@H](CO)C(=O)N[C@@H](CO)C(=O)N[C@H](C(=O)N1CCC[C@H]1C(N)=O)[C@@H](C)O)C(C)C)[C@@H](C)O)N(C)C(=O)[C@H](C)NC(=O)CN(C)C(=O)[C@H](Cc1ccccc1)NC(=O)[C@H](CO)NC(=O)[C@H](CO)NC(=O)[C@H](CCCNC(=N)N)NC(=O)[C@H](CCC(N)=O)NC(=O)[C@H](CC(C)C)NC(=O)[C@H](Cc1ccccc1)NC(=O)[C@H](Cc1c[nH]cn1)NC(=O)[C@H](C)NC(=O)[C@H](CC(C)C)NC(=O)[C@H](CCCNC(=N)N)NC(=O)[C@H](CCC(=O)O)NC(=O)[C@@H](NC(=O)[C@H](C)NC(=O)[C@@H]1CSSC[C@H](NC(=O)[C@H](CCCNC(=N)N)NC(=O)CC[C@H](NC(=O)CCCCCCCCCCCCCCCCCCC(=O)O)C(=O)O)C(=O)NCC(=O)N[C@@H]([C@@H](C)O)C(=O)N[C@@H](C)C(=O)N[C@@H]([C@@H](C)O)C(=O)N1)[C@@H](C)O [Compound 34, [19CD]-isoGlu-R-C( )-GTAT-C( )-ATERLAHFLQRSSF-Gly(Me)-A-Ile(Me)-LSSTEVGSSTP-NH2] ({C20 diacid-γGlu}-RCGTATCATERLAHFLQRSSF[Sar]A[NMeI]LSSTEVGSSTP-NH2; disulfide 2-7) | FND | FND | FND | 0.12 nM | 0.0148
